We go through 21 molecules from patent US8664220B2, “Polycyclic compounds as lysophosphatidic acid receptor antagonists” (Amira Pharmaceuticals, Inc., priority 2009, dated 2014).

A word on the IC50: it is the concentration at which inhibition is half-maximal.

For the assay, the target named is T1, human LPA1 (Homo sapiens, UniProt Q92633).
T1 construct: the full-length cDNA for human LPA1 was obtained by PCR of the reverse transcription reaction; expressed in transfected cells
Description: LPA1 calcium flux assay. The assay is classed as cell-based. As to conditions: human LPA1 expressing CHO cells, stimulated with 10 nM LPA; read-out: HLPA1 Ca Flux IC50. In short, it runs like this: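 CHO cells stably expressing human LPA1, serum-starved overnight and loaded with Calcium 4 dye in HBSS/20 mM Hepes/0.3% fatty-acid-free HSA, 1 h at 37 °C. Compounds pre-incubated 30 min at room temperature, then 10 nM LPA added; intracellular Ca2+ flux measured and IC50 from titration curves.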
(Calcium assays in cells follow changes in intracellular calcium, usually with a dye or a luminescent sensor.)

T1 sequence (Q92633 whole entry): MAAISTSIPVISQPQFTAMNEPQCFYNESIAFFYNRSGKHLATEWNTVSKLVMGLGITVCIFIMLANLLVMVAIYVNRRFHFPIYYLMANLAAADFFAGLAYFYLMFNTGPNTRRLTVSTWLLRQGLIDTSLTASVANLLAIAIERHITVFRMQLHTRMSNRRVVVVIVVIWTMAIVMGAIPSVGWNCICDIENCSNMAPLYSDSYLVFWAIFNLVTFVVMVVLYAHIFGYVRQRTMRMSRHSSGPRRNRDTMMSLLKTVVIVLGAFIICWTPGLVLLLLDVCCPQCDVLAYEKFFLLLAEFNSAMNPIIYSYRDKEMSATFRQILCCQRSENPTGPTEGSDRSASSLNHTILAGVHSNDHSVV

In the case of `Cc1noc(-c2ccc(-c3ccc(C4(C(=O)O)CC4)cc3)cc2)c1Nc1cccc([S+]([O-])c2ccccc2)n1` (stereo not drawn) [Compound 1-127, 1-{4′-[4-(6-Benzenesulfinyl-pyridin-2-ylamino)-3-methyl-isoxazol-5-yl]-biphenyl-4-yl}-cyclopropanecarboxylic acid], the IC50 is below 300 nM. In the case of `Cc1noc(-c2ccc(-c3ccc(C4(C(=O)O)CC4)cc3)cc2)c1Nc1cccc(S(=O)(=O)c2ccccc2)n1` [Compound 1-128, 1-{4′-[4-(6-Benzenesulfonyl-pyridin-2-ylamino)-3-methyl-isoxazol-5-yl]-biphenyl-4-yl}-cyclopropanecarboxylic acid], the half-inhibitory concentration (IC50) is below 300 nM.

Turning to `Cc1noc(-c2ccc(-c3ccc(C4(C(=O)O)CC4)cc3)cc2)c1C(O)c1cncc(-c2ccccc2)c1` (stereo not drawn) [Compound 1-129, 1-(4′-{4-[Hydroxy-(5-phenyl-pyridin-3-yl)-methyl]-3-methyl-isoxazol-5-yl}-biphenyl-4-yl)-cyclopropanecarboxylic acid], the IC50 is below 300 nM.

For the molecule `Cc1noc(-c2ccc(-c3ccc(C4(C(=O)O)CC4)cc3)cc2)c1C(O)c1cncc(-c2cccc(C(F)(F)F)c2)c1` (stereo not drawn) [Compound 1-130, 1-[4′-(4-{Hydroxy-[5-(3-trifluoromethyl-phenyl)-pyridin-3-yl]-methyl}-3-methyl-isoxazol-5-yl)-biphenyl-4-yl]-cyclopropanecarboxylic acid], the IC50 is below 300 nM. For `Cc1noc(-c2ccc(-c3ccc(C4(C(=O)O)CC4)cc3)cc2)c1Nc1cccc(C#Cc2ccccc2)n1` [Compound 1-131, 1-{4′-[3-Methyl-4-(6-phenylethynyl-pyridin-2-ylamino)-isoxazol-5-yl]-biphenyl-4-yl}-cyclopropanecarboxylic acid], the IC50 is below 300 nM. As for `Cc1noc(-c2ccc(-c3ccc(CCC(=O)O)cc3)cc2)c1Nc1cccc(-c2ccccc2)n1` [Compound 1-132, 3-{4′-[3-Methyl-4-(6-phenyl-pyridin-2-ylamino)-isoxazol-5-yl]-biphenyl-4-yl}-propionic acid], the IC50 is below 300 nM. Take `Cc1noc(-c2ccc(-c3ccc(C(C)(C)C(=O)O)cc3)cc2)c1Nc1cccc(-c2ccccc2)n1` [Compound 1-133, 2-Methyl-2-{4′-[3-methyl-4-(6-phenyl-pyridin-2-ylamino)-isoxazol-5-yl]-biphenyl-4-yl}-propionic acid]: the IC50 is below 300 nM.

As for `Cc1noc(-c2ccc(-c3ccc(C4(CC(=O)O)CC4)cc3)cc2)c1Nc1cccc(-c2ccccc2)n1` [Compound 1-134, (1-{4′-[3-Methyl-4-(6-phenyl-pyridin-2-ylamino)-isoxazol-5-yl]-biphenyl-4-yl}-cyclopropyl)-acetic acid], the IC50 was below 300 nM.

For `Cc1noc(-c2ccc(-c3ccc(C4(C(=O)O)CC4)cc3)cc2)c1Nc1cccc(C#CC2CCCC2)n1` [Compound 1-135, 1-{4′-[4-(6-Cyclopentylethynyl-pyridin-2-ylamino)-3-methyl-isoxazol-5-yl]-biphenyl-4-yl}-cyclopropanecarboxylic acid], the IC50 lay within 300 to 1000 nM. Take `Cc1noc(-c2ccc(-c3ccc(C4(C(=O)O)CC4)cc3)cc2)c1Nc1cccc(C(=O)N2CCCC2)n1` [Compound 1-136, 1-(4′-{3-Methyl-4-[6-(pyrrolidine-1-carbonyl)-pyridin-2-ylamino]-isoxazol-5-yl}-biphenyl-4-yl)-cyclopropanecarboxylic acid]: the IC50 is below 300 nM. On to `Cc1noc(-c2ccc(-c3ccc(C4(C(=O)O)CC4)cc3)cc2)c1Nc1cccc(C(=O)NC2CC2)n1` [Compound 1-137, 1-{4′-[4-(6-Cyclopropylcarbamoyl-pyridin-2-ylamino)-3-methyl-isoxazol-5-yl]-biphenyl-4-yl}-cyclopropanecarboxylic acid], for which the IC50 is below 300 nM. The value for `Cc1noc(-c2ccc(-c3ccc(C4(C(=O)O)CC4)cc3)cc2)c1Nc1cccc(OC2CCCCC2)n1` [Compound 1-138, 1-{4′-[4-(6-Cyclohexyloxy-pyridin-2-ylamino)-3-methyl-isoxazol-5-yl]-biphenyl-4-yl}-cyclopropanecarboxylic acid] was below 300 nM; that for `Cc1noc(-c2ccc(-c3ccc(C4(C(=O)O)CC4)cc3)cc2)c1Nc1cccc(OC2CCC2)n1` [Compound 1-139, 1-{4′-[4-(6-Cyclobutoxy-pyridin-2-ylamino)-3-methyl-isoxazol-5-yl]-biphenyl-4-yl}-cyclopropanecarboxylic acid] was below 300 nM. Take `Cc1noc(-c2ccc(-c3ccc(C4(C(=O)O)CC4)cc3)cc2)c1Nc1cccc(OC(C)C2CCCCC2)n1` (stereo not drawn) [Compound 1-140, 1-(4′-{4-[6-(1-Cyclohexyl-ethoxy)-pyridin-2-ylamino]-3-methyl-isoxazol-5-yl}-biphenyl-4-yl)-cyclopropanecarboxylic acid]: the IC50 is below 300 nM. In the case of `Cc1noc(-c2ccc(-c3ccc(C4(C(=O)O)CC4)cc3)cc2)c1Nc1cccc(OCCc2ccccc2)n1` [Compound 1-141, 1-{4′-[3-Methyl-4-(6-phenethyloxy-pyridin-2-ylamino)-isoxazol-5-yl]-biphenyl-4-yl}-cyclopropanecarboxylic acid], the IC50 was below 300 nM.

In the case of `Cc1noc(-c2ccc(-c3ccc(C(=O)O)cc3)cc2)c1Nc1nnc(-c2ccccc2)o1` [Compound 1-142, 4′-[3-Methyl-4-(5-phenyl-[1,3,4]oxadiazol-2-ylamino)-isoxazol-5-yl]-biphenyl-4-carboxylic acid], the IC50 was in the range of 1000 to 50000 nM.

Consider `Cc1noc(-c2ccc(-c3ccc(C4(C(=O)O)CC4)cc3)cc2)c1Nc1cccc(N2CCOC2=O)n1` [Compound 1-143, 1-(4′-{3-Methyl-4-[6-(2-oxo-oxazolidin-3-yl)-pyridin-2-ylamino]-isoxazol-5-yl}-biphenyl-4-yl)-cyclopropanecarboxylic acid], for which the IC50 was below 300 nM. Regarding `Cc1noc(-c2ccc(-c3ccc(C4(C(=O)O)CC4)cc3)cc2)c1Nc1cccc(-c2cccc(C(N)=O)c2)n1` [Compound 1-144, 1-(4′-{4-[6-(3-Carbamoyl-phenyl)-pyridin-2-ylamino]-3-methyl-isoxazol-5-yl}-biphenyl-4-yl)-cyclopropanecarboxylic acid], the IC50 was below 300 nM. Take `Cc1noc(-c2ccc(-c3ccc(C4(C(=O)O)CC4)cc3)cc2)c1Nc1cccc(-c2cccc(C#N)c2)n1` [Compound 1-145, 1-(4′-{4-[6-(3-Cyano-phenyl)-pyridin-2-ylamino]-3-methyl-isoxazol-5-yl}-biphenyl-4-yl)-cyclopropanecarboxylic acid]: the IC50 is below 300 nM.

For the molecule `COc1ccc(F)cc1-c1cccc(Nc2c(C)noc2-c2ccc(-c3ccc(C4(C(=O)O)CC4)cc3)cc2)n1` [Compound 1-146, 1-(4′-{4-[6-(5-Fluoro-2-methoxy-phenyl)-pyridin-2-ylamino]-3-methyl-isoxazol-5-yl}-biphenyl-4-yl)-cyclopropanecarboxylic acid], the IC50 is below 300 nM. On to `Cc1noc(-c2ccc(-c3ccc(C4(C(=O)O)CC4)cc3)cc2)c1Nc1cccc(-c2cc(F)cc(Cl)c2)n1` [Compound 1-147, 1-(4′-{4-[6-(3-Chloro-5-fluoro-phenyl)-pyridin-2-ylamino]-3-methyl-isoxazol-5-yl}-biphenyl-4-yl)-cyclopropanecarboxylic acid], for which the IC50 was below 300 nM.
